Tested on: methane production in rumen fluid
Test: Rumen in vitro (RIV) assay, methane production from rumen fluid incubations
Type: cell-based, cattle
Settings: Bos taurus, read-out: RIV % methane reduction +/− SD
Method in brief: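 Rumen fluid from two fistulated cattle diluted 12 ml in 48 ml buffer with ryegrass substrate, incubated in sealed bottles at 39° C for 24-48 h in duplicate. Inhibitors added in DMF (stocks 1000-fold above highest assay level); total gas, methane and H2 measured automatically; 30 μM BES positive control, no-inhibitor negative control.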

Row | Structure (SMILES) | inhibition at 2 µM [%] | inhibition at 10 µM [%] | inhibition at 50 µM [%]
1 | CCCOc1ccc(-c2ccc(C3=NN(C(=O)CCC(=O)O)C(c4ccc5nccnc5c4)C3)cc2)cc1 (centres unmarked) [Compound 78, 4-Oxo-4-(3-(4′-propoxy-[1,1′-biphenyl]-4-yl)-5-(quinoxalin-6-yl)-4,5-dihydro-1H-pyrazol-1-yl)butanoic acid] | 39.8 ± 18.5 | 88.8 ± 2 | 
2 | O=C1NC(=O)C(CC(=O)N2N=C(c3ccc(Cl)cc3)CC2c2ccc3nccnc3c2)S1 (centres unmarked) [Compound 63, 5-(2-(3-(4-Chlorophenyl)-5-(quinoxalin-6-yl)-4,5-dihydro-1H-pyrazol-1-yl)-2-oxoethyl)thiazolidine-2,4-dione] |  |  | 43.6 ± 2.9
3 | O=C(O)CCC(=O)N1N=C(c2ccc(-c3ccccc3Cl)cc2)CC1c1ccc2nccnc2c1 (centres unmarked) [Compound 17, 4-(3-(2′-Chloro-[1,1′-biphenyl]-4-yl)-5-(quinoxalin-6-yl)-4,5-dihydro-1H-pyrazol-1-yl)-4-oxobutanoic acid] | < 5 | 74.2 ± 7.8 | 90 ± 1.2
4 | O=C(O)CCC(=O)N1N=C(c2ccc(-c3ccoc3)cc2)CC1c1ccc2nccnc2c1 (centres unmarked) [Compound 108, 4-(3-(4-(Furan-3-yl)phenyl)-5-(quinoxalin-6-yl)-4,5-dihydro-1H-pyrazol-1-yl)-4-oxobutanoic acid] |  | 6.3 ± 6.1 | 48.3 ± 2.8
5 | O=C(O)CCC(=O)N1N=C(c2ccc(-c3cccc(OC(F)(F)F)c3)cc2)CC1c1ccc2nccnc2c1 (centres unmarked) [Compound 21, 4-Oxo-4-(5-(quinoxalin-6-yl)-3-(3′-(trifluoromethoxy)-[1,1′-biphenyl]-4-yl)-4,5-dihydro-1H-pyrazol-1-yl)butanoic acid] | 15.8 ± 1.1 | 91.9 ± 1.5 | 97.9
6 | O=C(O)CCC(=O)N1N=C(c2ccc(-c3ccc(OC(F)F)cc3)cc2)CC1c1ccc2nccnc2c1 (centres unmarked) [Compound 65, 4-(3-(4′-(Difluoromethoxy)-[1,1′-biphenyl]-4-yl)-5-(quinoxalin-6-yl)-4,5-dihydro-1H-pyrazol-1-yl)-4-oxobutanoic acid] | 26.2 | 90.2 | 
7 | CC(C)S(=O)(=O)NC(=O)CCC(=O)N1N=C(c2ccc(Cl)cc2)CC1c1ccc2nccnc2c1 (centres unmarked) [Compound 58] | 6 ± 1.6 | 80.4 ± 6.3 | 93.9 ± 4.7
8 | COc1ccc(C2CC(c3ccc(Cl)cc3)=NN2C(=O)CCC(=O)O)cc1OC (centres unmarked) [Compound 43, 4-(3-(4-Chlorophenyl)-5-(3,4-dimethoxyphenyl)-4,5-dihydro-1H-pyrazol-1-yl)-4-oxobutanoic acid] |  |  | 39.7 ± 7.2
9 | CC(C)(C)Oc1ccc(-c2ccc(C3=NN(C(=O)CCC(=O)O)C(c4ccc5nccnc5c4)C3)cc2)cc1 (centres unmarked) [Compound 81, 4-(3-(4′-(tert-Butoxy)-[1,1′-biphenyl]-4-yl)-5-(quinoxalin-6-yl)-4,5-dihydro-1H-pyrazol-1-yl)-4-oxobutanoic acid] |  | 29.8 ± 17.8 | 
10 | O=C(O)c1cccc(N2N=C(c3ccc(-c4ccccc4)cc3)CC2c2ccc3nccnc3c2)c1 (centres unmarked) [Compound 61, 3-(3-([1,1′-Biphenyl]-4-yl)-5-(quinoxalin-6-yl)-4,5-dihydro-1H-pyrazol-1-yl)benzoic acid] | 13.1 | 88.3 ± 0.9 | 95.9 ± 0.6
11 | O=C(O)CCC(=O)N1N=C(c2ccc(Cl)cc2)CC1c1ccc2cccnc2c1 (centres unmarked) [Compound 34, 4-(3-(4-Chlorophenyl)-5-(quinolin-7-yl)-4,5-dihydro-1H-pyrazol-1-yl)-4-oxobutanoic acid] |  |  | 22 ± 2.1
12 | O=C(O)CCC(=O)N1N=C(c2ccc(-c3ccc(OCC(F)(F)F)cc3)cc2)CC1c1ccc2nccnc2c1 (centres unmarked) [Compound 92, 4-Oxo-4-(5-(quinoxalin-6-yl)-3-(4′-(2,2,2-trifluoroethoxy)-[1,1′-biphenyl]-4-yl)-4,5-dihydro-1H-pyrazol-1-yl)butanoic acid] | 32.1 ± 0.8 | 81.4 ± 3.1 | 
13 | COc1cc(C2CC(c3ccc(-c4ccccc4)cc3)=NN2C(=O)CCC(=O)O)ccc1O (centres unmarked) [Compound 46, 4-(3-([1,1′-Biphenyl]-4-yl)-5-(4-hydroxy-3-methoxyphenyl)-4,5-dihydro-1H-pyrazol-1-yl)-4-oxobutanoic acid] |  |  | 48.6 ± 1.7
14 | O=C(O)CCC(=O)N1N=C(c2ccc(-c3ccc(Cl)cc3Cl)cc2)CC1c1ccc2nccnc2c1 (centres unmarked) [Compound 26, 4-(3-(2′,4′-Dichloro-[1,1′-biphenyl]-4-yl)-5-(quinoxalin-6-yl)-4,5-dihydro-1H-pyrazol-1-yl)-4-oxobutanoic acid] |  | 65.8 ± 3.7 | 96 ± 1.1
15 | O=C(O)CCC(=O)N1N=C(c2ccc(Cl)cc2)CC1c1ccc2c(c1)OCCO2 (centres unmarked) [Compound 39, 4-(3-(4-Chlorophenyl)-5-(2,3-dihydrobenzo[b][1,4]dioxin-6-yl)-4,5-dihydro-1H-pyrazol-1-yl)-4-oxobutanoic acid] |  | 20 ± 5.1 | 79.2
16 | O=C(O)CCC(=O)N1N=C(c2ccc(-c3ccc4c(c3)OCO4)cc2)CC1c1ccc2nccnc2c1 (centres unmarked) [Compound 103, 4-(3-(4-(Benzo[d][1,3]dioxol-5-yl)phenyl)-5-(quinoxalin-6-yl)-4,5-dihydro-1H-pyrazol-1-yl)-4-oxobutanoic acid] |  | 24.8 ± 6.2 | 
17 | COc1ccc(-c2cccc(C3=NN(C(=O)CCC(=O)O)C(c4ccc5nccnc5c4)C3)c2)cc1 (centres unmarked) [Compound 99, 4-(3-(4′-Methoxy-[1,1′-biphenyl]-3-yl)-5-(quinoxalin-6-yl)-4,5-dihydro-1H-pyrazol-1-yl)-4-oxobutanoic acid] |  | < 5 | 71.8
18 | COc1ccc(-c2ccc(C3=NN(C(=O)CCC(=O)O)C(c4ccc5nccnc5c4)C3)cc2)cc1 (centres unmarked) [Compound 25, 4-(3-(4′-Methoxy-[1,1′-biphenyl]-4-yl)-5-(quinoxalin-6-yl)-4,5-dihydro-1H-pyrazol-1-yl)-4-oxobutanoic acid] | < 5 | 83.7 ± 0.4 | 
19 | O=C(O)CCC(=O)N1N=C(c2ccc(-c3ccc(F)cc3)cc2)CC1c1ccc2nccnc2c1 (centres unmarked) [Compound 16, 4-(3-(4′-Fluoro-[1,1′-biphenyl]-4-yl)-5-(quinoxalin-6-yl)-4,5-dihydro-1H-pyrazol-1-yl)-4-oxobutanoic acid] | < 5 | 77.5 ± 2.1 | 96.6 ± 0.2
20 | O=C(O)CCC(=O)N1N=C(c2ccc(Cl)cc2Cl)CC1c1ccc2nccnc2c1 (centres unmarked) [Compound 10, 4-(3-(2,4-Dichlorophenyl)-5-(quinoxalin-6-yl)-4,5-dihydro-1H-pyrazol-1-yl)-4-oxobutanoic acid] |  |  | 64 ± 0.6
21 | CN(C)S(=O)(=O)NC(=O)CCC(=O)N1N=C(c2ccc(OC(F)(F)F)cc2)CC1c1ccc2nccnc2c1 (centres unmarked) [Compound 126, N—(N,N-Dimethylsulfamoyl)-4-oxo-4-(5-(quinoxalin-6-yl)-3-(4-(trifluoromethoxy)phenyl)-4,5-dihydro-1H-pyrazol-1-yl) butanamide] |  | 25.5 ± 3.8 | 
22 | CC(C)c1ccc(C2=NN(C(=O)CCC(=O)O)C(c3ccc4nccnc4c3)C2)cc1 (centres unmarked) [Compound 3, 4-(3-(4-Isopropylphenyl)-5-(quinoxalin-6-yl)-4,5-dihydro-1H-pyrazol-1-yl)-4-oxobutanoic acid] |  | 5.5 ± 2.8 | 78.6 ± 1.1
